Experimental data published in publication PMC3268193 (British Journal of Pharmacology, 2012).
Substitutions are numbered along the chain they refer to. Several values for one entry are separate records, joined by “and”; a condition that tells them apart may be missing. Identical values can stand only once.

Experiments:
[1] = system: WT or mutant P2X receptors; assay: Holding current in the absence of ATP; assay type: cell-based, human
[2] = molecular target: T1, P2X2 receptor mutant D136K (Homo sapiens, UniProt Q9UBL9, D148K); assay: Two-electrode voltage clamp, P2X2 mutant D136K; assay type: cell-based
T1 sequence (Q9UBL9 1-471 D148K): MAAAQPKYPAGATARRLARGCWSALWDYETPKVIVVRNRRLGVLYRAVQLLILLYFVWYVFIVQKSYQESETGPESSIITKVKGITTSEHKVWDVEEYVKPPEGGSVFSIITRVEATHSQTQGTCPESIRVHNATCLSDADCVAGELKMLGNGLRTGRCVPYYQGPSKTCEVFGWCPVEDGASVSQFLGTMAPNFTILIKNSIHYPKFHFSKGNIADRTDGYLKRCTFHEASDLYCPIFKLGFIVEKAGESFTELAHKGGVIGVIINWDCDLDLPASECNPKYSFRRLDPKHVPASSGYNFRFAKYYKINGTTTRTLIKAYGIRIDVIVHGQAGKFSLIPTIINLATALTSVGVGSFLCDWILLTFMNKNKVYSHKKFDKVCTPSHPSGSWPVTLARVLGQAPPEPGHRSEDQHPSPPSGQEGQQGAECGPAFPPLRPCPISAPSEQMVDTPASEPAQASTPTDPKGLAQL

human P2X2 receptor WT = molecular target: T2, human P2X2 receptor WT (Homo sapiens, UniProt Q9UBL9); assay: Two-electrode voltage clamp, WT P2X2 receptor in Xenopus oocytes; assay type: cell-based
T2 sequence (Q9UBL9 1-471): T1 sequence (Q9UBL9 1-471 D148K) with K148D

P2X2 Cys1(3-4) chimera = molecular target: T3, P2X2 Cys1(3-4) chimera (Homo sapiens, UniProt Q9UBL9, A144P/D148K/E146K/G151A/L147A/L150K/L154I/M149R/N152Q/R158K/V143T); assay: Two-electrode voltage clamp, chimera P2X2 Cys1; assay type: cell-based
T3 sequence (Q9UBL9 1-471 V143T/A144P/E146K/L147A/D148K/M149R/L150K/G151A/N152Q/L154I/R158K): T1 sequence (Q9UBL9 1-471 D148K) with V143T, A144P, E146K, L147A, M149R, L150K, G151A, N152Q, L154I, R158K

human P2X1 receptor WT = molecular target: T4, human P2X1 receptor WT (Homo sapiens, UniProt P51575); assay: Two-electrode voltage clamp, WT P2X1 receptor in Xenopus oocytes; assay type: cell-based
T4 sequence (P51575 1-399): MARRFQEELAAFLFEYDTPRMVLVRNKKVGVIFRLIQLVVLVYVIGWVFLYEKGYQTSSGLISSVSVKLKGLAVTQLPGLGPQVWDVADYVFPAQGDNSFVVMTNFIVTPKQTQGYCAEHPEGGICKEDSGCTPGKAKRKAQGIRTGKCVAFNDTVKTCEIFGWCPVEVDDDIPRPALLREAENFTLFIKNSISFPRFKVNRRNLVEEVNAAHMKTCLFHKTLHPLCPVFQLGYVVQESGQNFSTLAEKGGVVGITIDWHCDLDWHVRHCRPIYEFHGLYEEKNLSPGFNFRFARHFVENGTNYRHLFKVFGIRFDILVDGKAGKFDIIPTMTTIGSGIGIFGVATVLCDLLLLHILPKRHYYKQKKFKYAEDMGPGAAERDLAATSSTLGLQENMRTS

[3] = molecular target: T5, P2X1 receptor mutant K136E (Homo sapiens, UniProt P51575, K136E); assay: Two-electrode voltage clamp, P2X1 mutant K136E; assay type: cell-based
T5 sequence (P51575 1-399 K136E): T4 sequence (P51575 1-399) with K136E

P2X1 Cys2(1-3) chimera = molecular target: T6, P2X1 Cys2(1-3) chimera (Homo sapiens, UniProt P51575, A118P/DEL120-123/E128S/G124S/G131D/INS125RVHNAT/K127L/S130A); assay: Two-electrode voltage clamp, chimera P2X1 Cys2; assay type: cell-based
T6 sequence (P51575 with tags, fused parts or gaps A118P/DEL120-123/G124S/INS125RVHNAT/K127L/E128S/S130A/G131D): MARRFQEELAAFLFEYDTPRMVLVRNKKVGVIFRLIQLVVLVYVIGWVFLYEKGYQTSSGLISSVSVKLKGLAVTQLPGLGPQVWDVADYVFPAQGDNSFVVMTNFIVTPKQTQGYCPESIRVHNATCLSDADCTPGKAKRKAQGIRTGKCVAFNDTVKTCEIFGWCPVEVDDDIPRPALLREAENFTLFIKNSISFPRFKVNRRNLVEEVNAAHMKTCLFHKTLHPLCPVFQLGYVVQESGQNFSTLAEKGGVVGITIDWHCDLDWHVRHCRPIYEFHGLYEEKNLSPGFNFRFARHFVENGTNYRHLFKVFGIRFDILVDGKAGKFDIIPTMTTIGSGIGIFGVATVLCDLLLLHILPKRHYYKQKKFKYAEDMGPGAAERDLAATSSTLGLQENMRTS

Compound: O=C(Nc1cc(C(=O)Nc2ccc(S(=O)(=O)O)cc2S(=O)(=O)O)cc(C(=O)Nc2ccc(S(=O)(=O)O)cc2S(=O)(=O)O)c1)Nc1cc(C(=O)Nc2ccc(S(=O)(=O)O)cc2S(=O)(=O)O)cc(C(=O)Nc2ccc(S(=O)(=O)O)cc2S(=O)(=O)O)c1 [NF449, 4,4′,4′′,4′′′-(carbonylbis(imino-5,1,3-benzenetriyl-bis(carbonylimino)))tetrakis-benzene-1,3-disulphonic acid]
- Effect on holding current ([1]; NF449 10 µM): no effect
- Effect of mutation on NF449 sensitivity [2]: no effect
- NF449 pIC50 (human P2X2 receptor WT; P2X2 WT, vs EC90 concentration of ATP): 5.86 ± 0.09
- Hill slope of NF449 inhibition curve (human P2X2 receptor WT; WT P2X2, vs EC90 ATP): 1.61 ± 0.08
- IC50 (human P2X2 receptor WT; read-out: NF449 IC50, P2X2 receptor, vs EC90 ATP (30 µM)): ~1000 nM and ~1500 nM
- IC50 (P2X2 Cys1(3-4) chimera; read-out: NF449 IC50, vs EC90 ATP): 1100 nM
- Schild slope (human P2X1 receptor WT; WT P2X1): 1.17± 0.16
- Hill slope of NF449 inhibition curve (human P2X1 receptor WT; WT P2X1, vs EC90 ATP): 0.98 ± 0.13
- Reduction of ATP-evoked current ([3]; 1 nM antagonist, EC90 ATP (10 µM)): 40–70%
- Reduction in NF449 sensitivity compared with P2X1 WT (P2X1 Cys2(1-3) chimera): ~20 fold

Compound: Cc1ccc(C(=O)Nc2ccc(S(=O)(=O)O)c3cc(S(=O)(=O)O)cc(S(=O)(=O)O)c23)cc1NC(=O)c1cccc(NC(=O)Nc2cccc(C(=O)Nc3cc(C(=O)Nc4ccc(S(=O)(=O)O)c5cc(S(=O)(=O)O)cc(S(=O)(=O)O)c45)ccc3C)c2)c1 [suramin]
- Effect on holding current ([1]; suramin 100 µM): no effect
- Effect of mutation on suramin sensitivity [2]: no effect
- Reduction of responses to ATP (human P2X2 receptor WT; P2X2, 100 µM suramin, ATP 30 µM (EC90)): ~50%
- Increase in suramin sensitivity compared with WT P2X2 (P2X2 Cys1(3-4) chimera): ~30 fold
- Difference in suramin sensitivity between human P2X1 and P2X2 receptors (human P2X1 receptor WT): ~60 fold
- Effect of mutation on suramin sensitivity [3]: no effect
- Increase in suramin sensitivity compared with WT P2X1 (P2X1 Cys2(1-3) chimera): 15 fold
